In US4315023A, “1-Phenethylimidazole derivatives” (Westwood Pharmaceuticals, Inc., priority 1980, dated 1982):
Structures can show the parent of a compound that is named as a salt. One block for each compound: values may come before it.

Assays:
Streptococcus pyogenes = assay: in vitro antibacterial activity (MIC), S. pyogenes; format: cell-based; details: 50% Nutrient Broth + 5% human serum
Streptococcus pneumoniae = assay: in vitro antibacterial activity (MIC), S. pneumoniae; format: cell-based; details: 50% Nutrient Broth + 5% human serum
Trichophyton quinekeanum = Trichophyton quinekeanum induced skin infection in guinea pigs; format: in vivo, male guinea pigs; details: for EC50, Trichophyton Skin Infection: Table I, percentage drug concentration giving 50% of the score of untreated control, topical ointment; for EC50 (%) (95% CL), Trichophyton skin infection: Table II, N = 4, 3 applications day 1, 3 and 5; for Score, Determ. G / Score, Mean / Score, Determ. E / Score, Determ. F: lesion score 0-4
Procedure: In the guinea pig skin infection test, Trichophyton quinekeanum was cultured on a YGP agar slant at 28° C. for 10 days. Spores were collected from the mycelial mat and suspended in Sabouraud broth containing 2% of Tween 80. Groups of 3 male guinea pigs weighing between 400-500 g were used for each dose of test compound. The flanks of the animals were depilated and injured with sandpaper. The injured area was inoculated and rubbed with a glass rod on day 0 with 0.2 ml of the spore suspension containing 10^8 CFU/ml. The test compound was combined with a 1:1 mixture of polyethylene glycol 400 and 4000, and 0.3 ml of the ointment was applied to the infected area on day 1, 3 and 5. Lesions were examined on day 7 and scored as follows: 0, normal; 1, erythema; 2, erythema with whitish area; 3, erythema and numerous whitish areas; 4, erythema with confluent scaling and whitish pateches. A compound showing a mean score of 1.5 or less was considered active.
In the following Table I the antifungal activity of the test compound is reported as the EC50 value, which is the percentage drug concentration giving 50% of the score of untreated control animals. The EC50 was calculated by the method of least squares (K. Brounlee: Statistical Theory and Methodology in Science and Engineering, pages 345-349, Wiley Press, New York, 1965). In Table II a more detailed comparison on the in vivo antifungal activities of compound 3a and the isomeric prior art compound 2 are shown together with the data for compound 3b.
Treatment: 5 applications (day 0 to 4) against candida vaginal infection
and 3 applications (day 1, 3 and 5) against trichophyton skin infection

S. faecalis = assay: in vitro antibacterial activity (MIC), S. faecalis; format: cell-based, Streptococcus faecalis; details: Enterococcus faecalis; Nutrient Broth
Staphylococcus aureus = assay: in vitro antibacterial activity (MIC), S. aureus; format: cell-based; details: Nutrient Broth
Candida albicans = Candida albicans induced vaginal infection in mice; format: in vivo, female mice; details: for EC50, Candida Vaginal Infection: Table I, percentage drug concentration giving 50% of the score of untreated control, intravaginal; for EC50 (%) (95% CL), Candida vaginal infection: Table II, N = 5, 5 applications day 0 to 4; for Score, Determination A / Score, Determination B / Score, Determination C / Score, Determination D / Score, Mean: score 0-4
Procedure: A majority of the compounds of formula 3 were evaluated together with the prior art compound of formula 2 in a Candida albicans induced vaginal infection in mice and a Trichophyton quinekeanum induced skin infection in guinea pigs. Sabouraud broth was inoculated with Candida albicans and the inoculum incubated for two days at 28° C. on a rotary shaker. Groups of four to five female mice weighing between 18-21 grams were infected intravaginally with a 0.01 ml portion of the cell suspension containing 10^8 cells/ml on day 0. The mice were treated subcutaneously with 0.5 mg of estradiol benzoate three days before and four days after infection. The test compounds were suspended in 1% carboxymethyl cellulose and 0.02 ml of the suspension was instilled intravaginally from day 0 (four hours after infection) to day 4 (5 applications). On day 7, vaginal exudate was taken by a thin glass rod and streaked on a YGP agar plate containing 100 mcg/ml of chloramphenicol. The plate was incubated for two days at 28° C. […] In the following Table I the antifungal activity of the test compound is reported as the EC50 value, which is the percentage drug concentration giving 50% of the score of untreated control animals. The EC50 was calculated by the method of least squares (K. Brounlee: Statistical Theory and Methodology in Science and Engineering, pages 345-349, Wiley Press, New York, 1965). In Table II a more detailed comparison on the in vivo antifungal activities of compound 3a and the isomeric prior art compound 2 are shown together with the data for compound 3b.

Compound: Clc1ccc(CSCSC(Cn2ccnc2)c2ccc(Cl)cc2Cl)cc1 (centres unmarked) [Compound 3a, 1-[2-(4-Chlorobenzylthiomethylthio)-2-(2,4-dichlorophenyl)ethyl]1-H-imidazole hydrogen fumarate]
MIC (Streptococcus pyogenes): 63 µg/mL
MIC (Streptococcus pneumoniae): 63 µg/mL
EC50, Trichophyton Skin Infection (Trichophyton quinekeanum): 0.039%
EC50 (%) (95% CL), Trichophyton skin infection (Trichophyton quinekeanum): 0.039%
Score, Determ. G (Trichophyton quinekeanum; conc. 0.01%): 2.0
Score, Mean (Trichophyton quinekeanum; conc. 0.01%): 2.0
Score, Determ. E (Trichophyton quinekeanum; conc. 0.03%): 1.8
Score, Determ. F (Trichophyton quinekeanum; conc. 0.03%): 2.5
Score, Determ. G (Trichophyton quinekeanum; conc. 0.03%): 1.5
Score, Mean (Trichophyton quinekeanum; conc. 0.03%): 1.9
Score, Determ. E (Trichophyton quinekeanum; conc. 0.1%): 1.5
Score, Determ. F (Trichophyton quinekeanum; conc. 0.1%): 1.0
Score, Determ. G (Trichophyton quinekeanum; conc. 0.1%): 0.3
Score, Mean (Trichophyton quinekeanum; conc. 0.1%): 0.92
Score, Determ. E (Trichophyton quinekeanum; conc. 0.3%): 1.0
Score, Determ. F (Trichophyton quinekeanum; conc. 0.3%): 0
Score, Determ. G (Trichophyton quinekeanum; conc. 0.3%): 0
Score, Mean (Trichophyton quinekeanum; conc. 0.3%): 0.33
times more efficacious than prior art compound 2, Trichophyton induced skin infection in guinea pigs (Trichophyton quinekeanum; hydrogen fumarate of 3a vs prior art compound 2): about 2.5 times
MIC (S. faecalis): > 63 µg/mL
MIC (Staphylococcus aureus; Strain A): 0.5 µg/mL
MIC (Staphylococcus aureus; Strain B): > 63 µg/mL
MIC (Staphylococcus aureus; Strain C): > 63 µg/mL
EC50, Candida Vaginal Infection (Candida albicans): 0.0035%
EC50 (%) (95% CL), Candida vaginal infection (Candida albicans): 0.0035%
Score, Determination A (Candida albicans; conc. 0.0003%): 2.8
Score, Determination B (Candida albicans; conc. 0.0003%): 2.2
Score, Determination C (Candida albicans; conc. 0.0003%): 3.4
Score, Determination D (Candida albicans; conc. 0.0003%): 2.5
Score, Mean (Candida albicans; conc. 0.0003%): 2.6
Score, Determination A (Candida albicans; conc. 0.001%): 3.0
Score, Determination B (Candida albicans; conc. 0.001%): 2.2
Score, Determination C (Candida albicans; conc. 0.001%): 2.8
Score, Determination D (Candida albicans; conc. 0.001%): 2.0
Score, Mean (Candida albicans; conc. 0.001%): 2.5
Score, Determination A (Candida albicans; conc. 0.003%): 1.4
Score, Determination B (Candida albicans; conc. 0.003%): 2.2
Score, Determination C (Candida albicans; conc. 0.003%): 3.0
Score, Determination D (Candida albicans; conc. 0.003%): 1.3
Score, Mean (Candida albicans; conc. 0.003%): 2.0
Score, Determination A (Candida albicans; conc. 0.01%): 1.5
Score, Determination B (Candida albicans; conc. 0.01%): 0.4
Score, Determination C (Candida albicans; conc. 0.01%): 1.3
Score, Determination D (Candida albicans; conc. 0.01%): 1.3
Score, Mean (Candida albicans; conc. 0.01%): 1.1
Score, Determination A (Candida albicans; conc. 0.03%): 0.6
Score, Determination B (Candida albicans; conc. 0.03%): 0.8
Score, Determination C (Candida albicans; conc. 0.03%): 0
Score, Determination D (Candida albicans; conc. 0.03%): 0.4
Score, Mean (Candida albicans; conc. 0.03%): 0.45
times more efficacious than prior art compound 2, Candida induced vaginal infection in mice (Candida albicans; relative to prior art compound 2 (for 3a: hydrogen fumarate vs hydrogen fumarate)): greater than 85 times

Compound: Clc1ccc(C(Cn2ccnc2)SCSCc2c(Cl)cccc2Cl)c(Cl)c1 (centres unmarked) [Compound 3e, 1-[2-(2,6-Dichlorobenzylthiomethylthio)-2-(2,4-dichlorophenyl)ethyl]1-H-imidazole hydrochloride]
MIC (Streptococcus pyogenes): > 63 µg/mL
MIC (Streptococcus pneumoniae): > 63 µg/mL
EC50, Trichophyton Skin Infection (Trichophyton quinekeanum): 0.085%
MIC (S. faecalis): 0.5 µg/mL
MIC (Staphylococcus aureus; Strain A): 0.25 µg/mL
MIC (Staphylococcus aureus; Strain B): > 63 µg/mL
MIC (Staphylococcus aureus; Strain C): 0.25 µg/mL
EC50, Candida Vaginal Infection (Candida albicans): > 0.3%

Compound: Cl.Clc1ccc(CSCSC(Cn2ccnc2)c2ccc(Cl)cc2Cl)cc1 (centres unmarked) [Compound 3b, 1-[2-(4-Chlorobenzylthiomethylthio)-2-(2,4-dichlorophenyl)ethyl]-1H-imidazole hydrochloride]
MIC (Streptococcus pyogenes): > 63 µg/mL
MIC (Streptococcus pneumoniae): > 63 µg/mL
EC50, Trichophyton Skin Infection (Trichophyton quinekeanum): 0.053%
EC50 (%) (95% CL), Trichophyton skin infection (Trichophyton quinekeanum): 0.053%
Score, Determ. F (Trichophyton quinekeanum; conc. 0.03%): 3.5
Score, Determ. G (Trichophyton quinekeanum; conc. 0.03%): 1.3
Score, Mean (Trichophyton quinekeanum; conc. 0.03%): 2.4
Score, Determ. F (Trichophyton quinekeanum; conc. 0.1%): 1.0
Score, Determ. G (Trichophyton quinekeanum; conc. 0.1%): 0.3
Score, Mean (Trichophyton quinekeanum; conc. 0.1%): 0.7
Score, Determ. F (Trichophyton quinekeanum; conc. 0.3%): 0.3
Score, Determ. G (Trichophyton quinekeanum; conc. 0.3%): 0.3
Score, Mean (Trichophyton quinekeanum; conc. 0.3%): 0.3
MIC (S. faecalis): > 63 µg/mL
MIC (Staphylococcus aureus; Strain A): > 63 µg/mL
MIC (Staphylococcus aureus; Strain B): > 63 µg/mL
MIC (Staphylococcus aureus; Strain C): > 63 µg/mL
EC50, Candida Vaginal Infection (Candida albicans): 0.0011%
EC50 (%) (95% CL), Candida vaginal infection (Candida albicans): 0.0011%
Score, Determination C (Candida albicans; conc. 0.0003%): 1.6
Score, Determination D (Candida albicans; conc. 0.0003%): 3.3
Score, Mean (Candida albicans; conc. 0.0003%): 2.5
Score, Determination A (Candida albicans; conc. 0.001%): 3.0
Score, Determination C (Candida albicans; conc. 0.001%): 1.6
Score, Determination D (Candida albicans; conc. 0.001%): 0.4
Score, Mean (Candida albicans; conc. 0.001%): 1.7
Score, Determination A (Candida albicans; conc. 0.003%): 0.4
Score, Determination B (Candida albicans; conc. 0.003%): 2.0
Score, Determination C (Candida albicans; conc. 0.003%): 2.2
Score, Determination D (Candida albicans; conc. 0.003%): 0.2
Score, Mean (Candida albicans; conc. 0.003%): 1.2
Score, Determination A (Candida albicans; conc. 0.01%): 1.4
Score, Determination B (Candida albicans; conc. 0.01%): 0.6
Score, Determination C (Candida albicans; conc. 0.01%): 1.4
Score, Determination D (Candida albicans; conc. 0.01%): 0
Score, Mean (Candida albicans; conc. 0.01%): 0.85
Score, Determination A (Candida albicans; conc. 0.03%): 0
Score, Determination B (Candida albicans; conc. 0.03%): 0.8
Score, Determination C (Candida albicans; conc. 0.03%): 2.4
Score, Determination D (Candida albicans; conc. 0.03%): 0.8
Score, Mean (Candida albicans; conc. 0.03%): 1.0
Score, Determination A (Candida albicans; conc. 0.1%): 0.2
Score, Determination B (Candida albicans; conc. 0.1%): 0
Score, Mean (Candida albicans; conc. 0.1%): 0.1
Score, Determination A (Candida albicans; conc. 0.3%): 0
Score, Determination B (Candida albicans; conc. 0.3%): 0
Score, Mean (Candida albicans; conc. 0.3%): 0

Further compounds by falling MIC (Streptococcus pyogenes), results first:

MIC (Streptococcus pyogenes): 63 µg/mL
MIC (Streptococcus pneumoniae): 63 µg/mL
EC50, Trichophyton Skin Infection (Trichophyton quinekeanum): 0.078%
MIC (S. faecalis): > 63 µg/mL
MIC (Staphylococcus aureus; Strain A): 0.25 µg/mL
MIC (Staphylococcus aureus; Strain B): > 63 µg/mL
MIC (Staphylococcus aureus; Strain C): 0.25 µg/mL
EC50, Candida Vaginal Infection (Candida albicans): 0.060%
Compound: Clc1ccc(CSCSC(Cn2ccnc2)c2ccc(Cl)cc2Cl)c(Cl)c1.O=C(O)/C=C/C(=O)O (centres unmarked) [Compound 3d, 1-[2-(2,4-Dichlorobenzylthiomethylthio)-2-(2,4-dichlorophenyl)ethyl]-1H-imidazole hydrogen fumarate]

MIC (Streptococcus pyogenes): 32 µg/mL
MIC (Streptococcus pneumoniae): 63 µg/mL
EC50, Trichophyton Skin Infection (Trichophyton quinekeanum): 0.047%
MIC (S. faecalis): 2 µg/mL
MIC (Staphylococcus aureus; Strain A): 0.5 µg/mL
MIC (Staphylococcus aureus; Strain B): 16 µg/mL
MIC (Staphylococcus aureus; Strain C): 0.5 µg/mL
EC50, Candida Vaginal Infection (Candida albicans): 0.050%
Compound: Clc1ccc(C(Cn2ccnc2)SCSCc2ccsc2Cl)c(Cl)c1.O=C(O)C(=O)O (centres unmarked) [Compound 3h, 1-[2-(2-Chloro-3-thienylmethylthiomethylthio)2-(2,4-dichlorophenyl)ethyl]-1H-imidazole hydrogen oxalate]
